Test results: PMC11729419, “Thiol-Reactive or Redox-Active: Revising a Repurposing Screen Led to a New Invalidation Pipeline and Identified a True Noncovalent Inhibitor Against Papain-like Protease from SARS-CoV-2” (ACS Pharmacology & Translational Science, 2024)
Like-named read-outs stand apart in the source and are kept apart here.

Legend:
SARS-CoV-2 PLpro-NAB = SARS-CoV-2 PLpro-NAB (Severe acute respiratory syndrome coronavirus 2, UniProt P0DTD1); experiment: biochemical; details: for HC PLpro-NAB SARS-CoV-2 inhibition [%] 20 µM triplicates DTT BUFFER / HP PLpro-NAB SARS-CoV-2 inhibition [%] 20 µM triplicates L-CYS BUFFER / IC50: Table S1; for HC PLpro-NAB SARS-CoV-2 inhibition [%] 20 µM triplicates DTT BUFFER / HP PLpro-NAB SARS-CoV-2 inhibition [%] 20 µM triplicates L-CYS BUFFER: average (SD)
SARS-CoV-2 Mpro = SARS-CoV-2 Mpro (Severe acute respiratory syndrome coronavirus 2, UniProt P0DTD1); type: biochemical; details: 10 μM; 1 mM DTT
[1] = DTT buffer, read-out: HP PLpro-NAB SARS-CoV-2 IC50 [µM] triplicates DTT BUFFER
[2] = L-cysteine buffer, read-out: HP PLpro-NAB SARS-CoV-2 IC50 [µM] duplicates L-CYS BUFFER

Walrycin B
Interference inhibition [%] 20 µM based on product interference DTT BUFFER (Table S1, 20 µM, DTT buffer, listed as Walrycin B (EOS)): 8.01% | Interference inhibition [%] 20 µM based on product interference DTT BUFFER (Table S1, 20 µM, DTT buffer, listed as Walrycin B (FhG)): 4.84%

Cyanocobalamin
HC PLpro-NAB SARS-CoV-2 inhibition [%] 20 µM triplicates DTT BUFFER (SARS-CoV-2 PLpro-NAB; DTT buffer): 141.27 (3.32) % | HP PLpro-NAB SARS-CoV-2 inhibition [%] 20 µM triplicates L-CYS BUFFER (SARS-CoV-2 PLpro-NAB; L-cysteine buffer): 32.29 (7.95) % | IC50 (SARS-CoV-2 PLpro-NAB; [1]): 2.9 µM | IC50 (SARS-CoV-2 PLpro-NAB; [2]): > 20 µM | Interference inhibition [%] 20 µM based on product interference DTT BUFFER (Table S1, 20 µM, DTT buffer): 4.81%

SF1670
Interference inhibition [%] 20 µM based on product interference DTT BUFFER (Table S1, 20 µM, DTT buffer): 9.17%

Bacitracin [Bacitracin (Zinc)]
Interference inhibition [%] 20 µM based on product interference DTT BUFFER (Table S1, 20 µM, DTT buffer): -1.67%

O=C(Nc1ccccc1-c1cn2c(CN3CCNCC3)csc2n1)c1cnc2ccccc2n1 [SRT 1720]
Interference inhibition [%] 20 µM based on product interference DTT BUFFER (Table S1, 20 µM, DTT buffer): 22.23%

CN(C)CCNc1nc2cc(O)ccc2c2c1C(=O)c1ccccc1-2.Cl.Cl [TAS-103 (dihydrochloride)]
Interference inhibition [%] 20 µM based on product interference DTT BUFFER (Table S1, 20 µM, DTT buffer): 1.87%

Ryuvidine
Interference inhibition [%] 20 µM based on product interference DTT BUFFER (Table S1, 20 µM, DTT buffer): -2.15%

CCOC(=O)C1=C(C)N=c2sc(=Cc3ccc(OCC(=O)O)cc3)c(=O)n2C1c1ccc(SC)cc1 (stereo not shown) [ML120]
Interference inhibition [%] 20 µM based on product interference DTT BUFFER (Table S1, 20 µM, DTT buffer): 3.32%

C[n+]1c2cc(N)ccc2cc2ccc(N)cc21.[Cl-] [Acriflavinium Hydrochloride]
Interference inhibition [%] 20 µM based on product interference DTT BUFFER (Table S1, 20 µM, DTT buffer): -17.48%

O=C1C(Cl)=C(NCCN2CCOCC2)C(=O)c2ncccc21 [NSC-663284 (FhG)]
HC PLpro-NAB SARS-CoV-2 inhibition [%] 20 µM triplicates DTT BUFFER (SARS-CoV-2 PLpro-NAB; DTT buffer): 150.90 (0.34) % | HC PLpro-NAB SARS-CoV-2 inhibition [%] 20 µM triplicates DTT BUFFER (SARS-CoV-2 PLpro-NAB; DTT buffer, listed as NSC 663284 (EOS)): 168.59 (3.49) % | HP PLpro-NAB SARS-CoV-2 inhibition [%] 20 µM triplicates L-CYS BUFFER (SARS-CoV-2 PLpro-NAB; L-cysteine buffer): 7.56 (11.27) % | HP PLpro-NAB SARS-CoV-2 inhibition [%] 20 µM triplicates L-CYS BUFFER (SARS-CoV-2 PLpro-NAB; L-cysteine buffer, listed as NSC 663284 (EOS)): -38.39 (8.32) % | IC50 (SARS-CoV-2 PLpro-NAB; DTT buffer, listed as NSC 663284 (EOS), read-out: HP PLpro-NAB SARS-CoV-2 IC50 [µM] triplicates DTT BUFFER): 2.15 µM | IC50 (SARS-CoV-2 PLpro-NAB; [1]): 0.22 µM | IC50 (SARS-CoV-2 PLpro-NAB; [2]): > 20 µM | Interference inhibition [%] 20 µM based on product interference DTT BUFFER (Table S1, 20 µM, DTT buffer): -0.99% | Interference inhibition [%] 20 µM based on product interference DTT BUFFER (Table S1, 20 µM, DTT buffer, listed as NSC 663284 (EOS)): 14.95%

Oc1c(Cl)cc(Cl)c(Cl)c1Cc1c(O)c(Cl)cc(Cl)c1Cl [Hexachlorophene]
Interference inhibition [%] 20 µM based on product interference DTT BUFFER (Table S1, 20 µM, DTT buffer): 15.14%

O=C(O)c1cc(O)c2c(c1)[C@H]([C@H]1c3cc(C(=O)O)cc(O)c3C(=O)c3c(O[C@@H]4O[C@H](CO)[C@@H](O)[C@H](O)[C@H]4O)cccc31)c1cccc(O[C@@H]3O[C@H](CO)[C@@H](O)[C@H](O)[C@H]3O)c1C2=O [sennoside A]
Inhibition of Mpro (SARS-CoV-2 Mpro): inhibition of both proteases from SARS-CoV-2 | Inhibition in L-cysteine buffer versus DTT buffer (dose-response) (SARS-CoV-2 PLpro-NAB; 1 mM L-cysteine vs 1 mM DTT): lost its inhibitory potency | Inhibitory activity on retest in 1 mM L-cysteine (SARS-CoV-2 PLpro-NAB; 50% inhibition at 20 μM, 1 mM L-cysteine): retained their inhibitory activity | Interference inhibition [%] 20 µM based on product interference DTT BUFFER (Table S1, 20 µM, DTT buffer): 1.69%

CC[n+]1c(-c2ccccc2)c2cc(N)ccc2c2ccc(N)cc21 [Homidium Bromide]
Interference inhibition [%] 20 µM based on product interference DTT BUFFER (Table S1, 20 µM, DTT buffer): 1.40%

Cn1cccc1/C=C1\C(=O)NC(=O)c2ccccc21 [BYK-204165]
Interference inhibition [%] 20 µM based on product interference DTT BUFFER (Table S1, 20 µM, DTT buffer): -5.54%

CC(C)Nc1cccnc1N1CCN(C(=O)c2cc3cc(NS(C)(=O)=O)ccc3[nH]2)CC1 [Delavirdine (mesylate), Delavirdine]
inhibition at 20 µM (SARS-CoV-2 PLpro-NAB; read-out: HC PLpro-NAB SARS-CoV-2 inhibition [%] 20 µM triplicates DTT BUFFER): 52.2% | inhibition at 20 µM (SARS-CoV-2 PLpro-NAB; read-out: HP PLpro-NAB SARS-CoV-2 inhibition [%] 20 µM triplicates L-CYS BUFFER): -69.3% | Interference inhibition [%] 20 µM based on product interference DTT BUFFER: -20.91%

CC1(C)C(=O)N=C2C1=C(O)C(=O)c1ccccc12 [BVT-948]
Interference inhibition [%] 20 µM based on product interference DTT BUFFER (Table S1, 20 µM, DTT buffer): -137.72%

CC[N+](C)(CC)CCC[n+]1c(-c2ccccc2)c2cc(N)ccc2c2ccc(N)cc21.[I-].[I-] [Propidium-Iodide]
Interference inhibition [%] 20 µM based on product interference DTT BUFFER (Table S1, 20 µM, DTT buffer): 0.27%

O=C1C(=O)c2ccccc2-c2ccccc21 [9,10-Phenanthrenequinone]
Interference inhibition [%] 20 µM based on product interference DTT BUFFER (Table S1, 20 µM, DTT buffer): -2.46%

COc1cccc2c(NCc3ccccc3)nc(-n3c(N)nc4ccccc43)nc12 [ML240]
Interference inhibition [%] 20 µM based on product interference DTT BUFFER (Table S1, 20 µM, DTT buffer): 16.72%
